Entries after “also recorded” stand apart in the source; their conditions may differ.
Legend:
Format in all cases: cell-based, human
MDA-MB-231 cells = assay: Boyden chamber invasion assay, MDA-MB-231
Experimental: (§1) Boyden Chamber Invasion Assay. MDA-MB-231 or MCF-10A cells (5×10^4) in serum free growth medium with or without compound treatment were seeded into hanging cell culture inserts (for 24-well plates) pre-coated with Matrigel. Complete growth medium was added to the bottom well. After 16-24 h, the medium was removed, and the hanging inserts were washed with 1×DPBS twice and then fixed with 4% paraformaldehyde in 1×DPBS at room temperature for 20 min. Then the inserts were washed twice with 1×DPBS and stained with 0.1% (w/v) crystal violet 1×DPBS for 20 min. The inserts were washed twice with nanopure water and once with 1×DPBS. Cells on the surface of the Matrigel (non-invasive) were removed with cotton swabs and invading cells were counted and imaged under a microscope.

[1] = test system: proteome of MDA-MB-231 cells; assay: Global proteomics profiling by LC-MS/MS; settings: for number of proteins significantly affected / abundance of miR-21 regulated proteins: 1 and 2 at 1 μM; for number of proteins significantly affected: LNA-21 0.1 μM, 48 h, 3000 proteins detected; for abundance of miR-21 regulated proteins: LNA-21 100 nM; for proteins associated with miR-let-7: control
Experimental: Global Proteomics Profiling by Using LC-MS/MS. MDA-MB-231 cells (~60% confluency) were treated with 1 (1 μM), 2 (1 μM), LNA-21 (0.1 μM), or vehicle for 48 h. After washing with 1×DPBS, the cells were harvested by scraping and resuspended in 1×DPBS. They were lysed by sonication and centrifuged at 14,000×g for 15 min. Protein concentrations were determined by a Bradford assay (Bio-Rad). Protein samples (340 μg) were denatured with 6 M urea in 50 mM NH4HCO3, pH 8, reduced with 10 mM TCEP (tris(2-carboxyethyl)phosphine hydrochloride) for 30 min, and alkylated with 25 mM iodoacetamide for 30 min in the dark. The samples were diluted to a final concentration of 2 M urea with 50 mM NH4HCO3, pH 8, and CaCl2) was added to a final concentration of 1 mM. The protein mixture was digested with tiypsin (1.5 μL of 0.5 μg/μL) overnight at 37° C. The digested protein samples were acidified with acetic acid and desalted over a self-packed C18 spin column. After lyophilization, the samples were analyzed by LC-MS/MS as described below.
LC-MS/MS Analysis and MaxQuant Analysis. The lyophilized protein obtained above was resuspended in 0.1% formic acid in water and analyzed by using an EASY-nLC 1200 nano-UHPLC coupled to Q Exactive HF-X Quadrupole-Orbitrap mass spectrometer (Thermo Scientific) as previously reported^6. Obtained spectra were then analyzed with MaxQuant (V1.6.1.0). Spectra were searched against the human proteome (Uniprot) and common contaminants. The search tolerance was set to 20 ppm for the first peptide search and 10 ppm for the main peptide search. The false discovery rate (FDR) for proteins, peptides and sites identification was set at 5%. All the parameters were set as previously reported^6.
Principal Component Analysis. Principal component analysis (PCA) was completed on the proteomics data that included 2,315 proteins that were detected in all samples after the technical replications were averaged, to visualize overall differences across the samples. R build in package prcomp^10 was used to perform the analysis, where scale was set to TRUE.

PDCD4 = PDCD4 Western blot in MDA-MB-231 cells
Experimental: Western Blotting. MDA-MB-231 cells were plated in 6-well plates. When they reached ~50% confluency, they were treated with vehicle (DMSO) or 4. After 48 h, the medium was removed, and the cells were washed with 1×DPBS. The cells were harvested by trypsinization, and total protein was extracted with MPER (Mammalian Protein Extraction Reagent, Thermo Scientific) as previously described^6. Protein concentrations were determined by using a Pierce Micro BCA Protein Assay kit (Fisher Scientific). Approximately 10 μg of total protein from each sample obtained above was resolved on a SDS-polyacrylamide gel (10%), and the protein were transferred to a PVDF ([…]) membrane. After blocking the membrane in 1×TBST with 5% (w/v) nonfat milk for 60 min, the membrane was incubated with 1×TBST containing 5% milk and PDCD4 (Cell Signaling Technology, 9535S) primary antibody (1:1000 dilution) at 4° C. overnight. The membrane was washed with 1×TBST for 10 min three times and then incubated with 1:2000 anti-rabbit IgG horseradish-peroxidase secondary antibody conjugate (Cell Signaling Technology, 7074S) in 1× TBST containing 5% (w/v) milk for about 2 h. After washing with 1×TBST for 10 min three times, PDCD4 protein was detected by using SuperSignal West Pico Chemiluminescent Substrate (Pierce Biotechnology). After imaging, the membrane was stripped with 1× Stripping Buffer (200 mM glycine with 0.1% SDS, pH 2.2) for 120 min at RT, and β-actin level was detected as described for PDCD4 except using β-actin (Cell Signaling Technology, 3700S) primary antibody (1:5000 dilution). ImageJ software was used for quantification of the protein bands.

MCF-10A cells = assay: Boyden chamber invasion assay, MCF-10A; settings: for invasion phenotype of MCF-10A acquired by transfection of mutant pre-miR-21: 1 binding site ablated
Experimental: Cell Culture. Cells were cultured at 37° C. and 5% CO2. MDA-MB-231 cells (HTB-26, ATCC) were cultured in RMPI 1640 medium with L-glutamine & 25 mM HEPES supplemented with 1× Antibiotic/Antimycotic solution (Corning) and 10% FBS. MCF-10A cells (CRL-10317, ATCC) were cultured in 1×DMEM/F12 50/50 with L-glutamine & 15 mM HEPES (Corning) supplemented with 20% FBS, 1× Antibiotic/Antimycotic solution, 20 ng/mL human epidermal growth factor (Pepro Tech, Inc.), 10 μg/mL insulin (Sigma-Aldrich), and […] hydrocortisone (Pfaltz & Bauer). For compound treatment, compound stocks either in DMSO or water were diluted in growth medium and added to cells for the indicated time. Plasmid DNA to overexpress pre-miR-21 in pcDNA 3.1 (Addgene 21114) or a plasmid DNA encoding the pre-miR-21 mutant (custom purchased from GenScript USA, Inc.) was transfected with jetPRIME per the manufacturer's protocol. After transfection, the medium was replaced with growth medium containing the compound of interest, prepared as described above. The RNase L-targeting siRNA or a control siRNA was transfected with Lipofectamine RNAiMAX reagent (Invitrogen) per the manufacturer's protocol.
as §1

PTEN = PTEN luciferase assay; settings: MDA-MB-231
Experimental: PTEN Luciferase Assay. To study de-repression of PTEN, a luciferase-based cellular assay was performed as previously described^6. Briefly, MDA-MB-231 cells (~60% confluency) in 48-well plates were co-transfected with plasmids encoding Renilla luciferase (for normalization) and firefly luciferase fused to the 3′ UTR of PTEN by using Lipofectamine 2000 according to the manufacturer's protocol. After 5 h, the cells were treated with the compounds diluted in growth medium. Luciferase assay were then completed as previously described^4, 9.

SMILES	invasion of MDA-MB-231 cells (MDA-MB-231 cells)	number of affected proteins associated with ERK pathways ([1]; 1 μM)	number of proteins significantly affected [1]	abundance of miR-21 regulated proteins [1]	proteins associated with miR-let-7 [1]	derepression of PDCD4 expression (PDCD4; 5 μM)	invasion phenotype of MCF-10A acquired by transfection of wild type pre-miR-21 (MCF-10A cells)	invasion phenotype of MCF-10A acquired by transfection of mutant pre-miR-21 (MCF-10A cells)	invasive nature of MCF-10A cells (MCF-10A cells; no overexpression)	PTEN expression (luciferase-based assay) (PTEN)	PCA similarity of proteome [1]	PDCD4 expression (PDCD4; MDA-MB-231, 1 and 2 at 1 μM, LNA-21 at 100 nM)	fold more potent downstream effects than 1 (PDCD4; PTEN, PDCD4, invasion)
CN1CCN(c2ccc3nc(-c4c(N)c5c(F)cccc5[nH]c4=O)[nH]c3c2)CC1 [Compound 1, Dovitinib, reference compound]	inhibited invasiveness; also recorded: reduced	14	46	had no effect; also recorded: no significant changes	Neither treatment with 1 nor 2 affected	~ 60%	reverted this phenotype; also recorded: inhibited	insensitive	had no effect	derepressed	–	–	–
CCOC(=O)C1=C(Nc2ccccc2)S/C(=C\c2ccc(OCCOCCOCCOCCNC(=O)NCCN3CCN(c4ccc5[nH]c(-c6c(N)c7c(F)cccc7[nH]c6=O)nc5c4)CC3)c(O)c2)C1=O [Compound 2, Ribotac-Dovitinib]	reduced the invasive characteristic	–	28	globally upregulated; also recorded: significant increase in abundance	Neither treatment with 1 nor 2 affected	–	–	had no effect; also recorded: unable to rescue	–	derepressed	more similar to treatment with LNA-21 than 1	derepressed	10 fold

From patent US12702715B2, “Targeted RNA degradation allows precision repurposing of protein-targeted small molecule medicines to RNA” (University of Florida Research Foundation, Incorporated, priority 2020, dated 2026)
